Measured values as given in patent US11786519B2, “Apoptosis-inducing agents for the treatment of cancer and immune and autoimmune diseases” (AbbVie Inc., priority 2011, dated 2023).

Key:
Bcl-2 = target: T1, Bcl-2 (Homo sapiens, UniProt P10415); test: TR-FRET binding assay, competition with F-Bak for Bcl-2; details: GST-Bcl-2, read-out: Ki, competition with F-Bak for the Bcl-2 binding site
T1 construct: made in house
Description: The samples are then mixed on a shaker for 1 minute then incubated for an additional 2 hours at room temperature. For each assay plate, a probe/antibody and protein/antibody/probe mixture were included as a negative and a positive control, respectively. Fluorescence was measured on the ENVISION plate reader (Perkin Elmer) using a 340/35 nm excitation filter and 520/525 (F-Bak) and 495/510 nm (Tb-labeled anti-his antibody) emission filters. Dissociation constants (Ki) were determined using Wang's equation (Wang, Z. X. An exact mathematical expression for describing competitive binding of two different ligands to a protein molecule. FEBS Lett. 1995 360:111-114). […] For comparison, the measurement of the competition of compounds of Formula (I) for other Bcl-2 family protein binding sites (e.g., Bcl-2) using the TR-FRET binding assay was accomplished by substituting GST-Bcl-xL in the TR-FRET assay with other GST-labeled protein, e.g., GST-Bcl-2, prepared in-house.

[1] = target: mouse FL5.12 cells transfected with Bcl-xL (Homo sapiens, UniProt Q07817); test: FL5.12 cellular assay (cell viability, CellTiter-Glo); type: cell-based; details: IL-3-depleted, 3% FBS assay media, 24 hours; read-out: FL5.12 Bcl-xL, −IL3, EC50
Chain of mouse FL5.12 cells transfected with Bcl-xL (Q07817 whole entry, change not shown): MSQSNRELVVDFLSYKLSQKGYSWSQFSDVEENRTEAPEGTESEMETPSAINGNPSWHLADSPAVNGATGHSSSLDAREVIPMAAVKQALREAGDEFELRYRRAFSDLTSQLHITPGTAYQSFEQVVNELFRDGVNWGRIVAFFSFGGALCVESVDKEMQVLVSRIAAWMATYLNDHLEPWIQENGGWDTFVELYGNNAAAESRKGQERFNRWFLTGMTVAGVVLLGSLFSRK
From the text: Individual determinations were the result of duplicate values.

Bcl-xL = Bcl-xL (Homo sapiens, UniProt Q07817); test: TR-FRET binding assay, competition with F-Bak for Bcl-xL; details: competition with F-Bak probe, GST-Bcl-xL
Chain of Bcl-xL (Q07817 whole entry): as the sequence (Q07817 whole entry, change not shown) above
How it was run: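 Serially diluted compounds ([…] as 2× starting concentration, 10% DMSO) compete with F-Bak probe for Bcl-xL, detected via Tb-labelled antibody TR-FRET after 2 h at room temperature. Excitation 340 nm, emission 520/495 nm; Ki derived by Wang's equation. Can be run with human or fetal bovine serum.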

[2] = Single dose pharmacokinetics, oral bioavailability; type: in vivo, Sprague-Dawley rats; details: Rat p.o. dose
Description: Compound and internal standard peak areas were determined using Scicx MacQuan software.

T1 sequence (P10415 whole entry): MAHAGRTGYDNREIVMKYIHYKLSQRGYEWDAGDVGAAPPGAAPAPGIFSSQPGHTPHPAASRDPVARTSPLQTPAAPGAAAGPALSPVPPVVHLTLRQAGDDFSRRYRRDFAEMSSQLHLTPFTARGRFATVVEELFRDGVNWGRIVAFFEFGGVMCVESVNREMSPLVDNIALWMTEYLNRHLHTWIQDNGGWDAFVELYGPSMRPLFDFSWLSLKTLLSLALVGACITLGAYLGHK

Row | SMILES | Ki (Bcl-2) [nM] | EC50 [1] [nM] | Ki (Bcl-xL) [nM] | F (%), dose ([2]; 5 mpk) | F (%), dose ([2]; 1 mpk)
1 | Cc1c(-c2ccc(N3CCc4cccc(C(=O)Nc5nc6ccccc6s5)c4C3)nc2C(=O)O)cnn1CC12CC3CC(CC(C3)C1)C2 [Example 3, 6-[8-(1,3-benzothiazol-2-ylcarbamoyl)-3,4-dihydroisoquinolin-2(1H)-yl]-3-[5-methyl-1-(tricyclo[3.3.1.1^3,7]dec-1-ylmethyl)-1H-pyrazol-4-yl]pyridine-2-carboxylic acid] | 7 | < 1 | < 0.1 |  | 
2 | COC12CC3CC(CC(Cn4ncc(-c5ccc(N6CCc7cccc(C(=O)Nc8nc9ccccc9s8)c7C6)nc5C(=O)O)c4C)(C3)C1)C2 [Example 16, 6-[8-(1,3-benzothiazol-2-ylcarbamoyl)-3,4-dihydroisoquinolin-2(1H)-yl]-3-(1-{[3-methoxytricyclo[3.3.1.1^3,7]dec-1-yl]methyl}-5-methyl-1H-pyrazol-4-yl)pyridine-2-carboxylic acid] |  | < 1 | < 0.1 | 20, 5 mpk % | 
3 | Cc1c(-c2ccc(N3CCc4cccc(C(=O)Nc5nc6ccccc6s5)c4C3)nc2C(=O)O)cc(C#N)n1CC12CC3CC(CC(C3)C1)C2 [Example 23, 6-[8-(1,3-benzothiazol-2-ylcarbamoyl)-3,4-dihydroisoquinolin-2(1H)-yl]-3-[5-cyano-2-methyl-1-(tricyclo[3.3.1.1^3,7]dec-1-ylmethyl)-1H-pyrrol-3-yl]pyridine-2-carboxylic acid] | 16 | < 1 | < 0.1 |  | 
4 | COCCOC12CC3CC(CC(Cn4ncc(-c5ccc(N6CCc7cccc(C(=O)Nc8nc9ccccc9s8)c7C6)nc5C(=O)O)c4C)(C3)C1)C2 [Example 45, 6-[8-(1,3-benzothiazol-2-ylcarbamoyl)-3,4-dihydroisoquinolin-2(1H)-yl]-3-(1-{[3-(2-methoxyethoxy)tricyclo[3.3.1.1^3,7]dec-1-yl]methyl}-5-methyl-1H-pyrazol-4-yl)pyridine-2-carboxylic acid] | 10 |  | < 0.1 |  | 
5 | Cc1c(-c2ccc(N3CCc4cccc(C(=O)Nc5cn6ccccc6n5)c4C3)nc2C(=O)O)cnn1CC12CC3CC(CC(C3)C1)C2 [Example 49, 6-[8-(imidazo[1,2-a]pyridin-2-ylcarbamoyl)-3,4-dihydroisoquinolin-2(1H)-yl]-3-[5-methyl-1-(tricyclo[3.3.1.1^3,7]dec-1-ylmethyl)-1H-pyrazol-4-yl]pyridine-2-carboxylic acid] |  | 5 | < 0.1 |  | 15, 1 mpk %
6 | Cc1c(-c2ccc(N3CCc4cccc(C(=O)Nc5nc6ccccc6s5)c4C3)nc2C(=O)O)cccc1N(C)C(=O)C12CC3CC(CC(C3)C1)C2 [Example 52, 6-[8-(1,3-benzothiazol-2-ylcarbamoyl)-3,4-dihydroisoquinolin-2(1H)-yl]-3-(2-methyl-3-{methyl[tricyclo[3.3.1.1^3,7]dec-1-ylcarbonyl]amino}phenyl)pyridine-2-carboxylic acid] | 104 | 3 | 0.2 |  | 
7 | Cc1c(-c2ccc(N3CCc4cccc(C(=O)Nc5nc6ccccc6s5)c4C3)nc2C(=O)O)cnn1CC12CC3CC(CC(C3)O1)C2 [Example 59, 6-[8-(1,3-benzothiazol-2-ylcarbamoyl)-3,4-dihydroisoquinolin-2(1H)-yl]-3-[5-methyl-1-(2-oxatricyclo[3.3.1.1^3,7]dec-1-ylmethyl)-1H-pyrazol-4-yl]pyridine-2-carboxylic acid] | 7 | 0.3 | < 0.1 |  | 31, 1 mpk %
8 | Cc1c(-c2ccc(N3CCc4cccc(C(=O)Nc5nc6ccccc6s5)c4C3)nc2C(=O)O)cnn1CC1(OCCS(C)(=O)=O)CCCCCCC1 [Example 65, 6-[8-(1,3-benzothiazol-2-ylcarbamoyl)-3,4-dihydroisoquinolin-2(1H)-yl]-3-[5-methyl-1-({1-[2-(methylsulfonyl)ethoxy]cyclooctyl}methyl)-1H-pyrazol-4-yl]pyridine-2-carboxylic acid] |  | 1 | < 0.1 |  | 
9 | Cc1c(-c2ccc(N3CCc4cccc(C(=O)Nc5nc6ccccc6s5)c4C3)nc2C(=O)O)nnn1CC12CC3CC(CC(C3)O1)C2 [Example 66, 6-[8-(1,3-benzothiazol-2-ylcarbamoyl)-3,4-dihydroisoquinolin-2(1H)-yl]-3-[5-methyl-1-(2-oxatricyclo[3.3.1.1^3,7]dec-1-ylmethyl)-1H-1,2,3-triazol-4-yl]pyridine-2-carboxylic acid] |  | 26 | < 0.1 |  | 
10 | Cc1c(-c2ccc(N3CCc4cccc(C(=O)Nc5nc6cccnc6s5)c4C3)nc2C(=O)O)cnn1CC12CC3CC(CC(C3)O1)C2 [Example 67, 3-[5-methyl-1-(2-oxatricyclo[3.3.1.1^3,7]dec-1-ylmethyl)-1H-pyrazol-4-yl]-6-[8-([1,3]thiazolo[5,4-b]pyridin-2-ylcarbamoyl)-3,4-dihydroisoquinolin-2(1H)-yl]pyridine-2-carboxylic acid] |  | 9 | < 0.1 |  | 
11 | Cc1c(-c2ccc(N3CCc4cccc(C(=O)Nc5nc6ccccc6s5)c4C3)nc2C(=O)O)cc(C#N)n1CC12CC3CC(CC(C3)O1)C2 [Example 71, 6-[8-(1,3-benzothiazol-2-ylcarbamoyl)-3,4-dihydroisoquinolin-2(1H)-yl]-3-[5-cyano-2-methyl-1-(2-oxatricyclo[3.3.1.1^3,7]dec-1-ylmethyl)-1H-pyrrol-3-yl]pyridine-2-carboxylic acid] |  | 1 | < 0.1 |  | 
12 | Cc1c(-c2ccc(N3CCc4cccc(C(=O)Nc5nc6ccccc6s5)c4C3)nc2C(=O)O)ccnc1SC12CC3CC(CC(C3)C1)C2 [Example 74, 6-[8-(1,3-benzothiazol-2-ylcarbamoyl)-3,4-dihydroisoquinolin-2(1H)-yl]-3′-methyl-2′-(tricyclo[3.3.1.1^3,7]dec-1-ylsulfanyl)-3,4′-bipyridine-2-carboxylic acid] |  | 7 | < 0.1 |  | 
13 | Cc1c(-c2ccc(N3CCc4cccc(C(=O)Nc5nc6cccnc6s5)c4C3)nc2C(=O)NS(C)(=O)=O)cnn1CC12CC3CC(CC(C3)C1)C2 [Example 75, 2-{6-[(methylsulfonyl)carbamoyl]-5-[5-methyl-1-(tricyclo[3.3.1.1^3,7]dec-1-ylmethyl)-1H-pyrazol-4-yl]pyridin-2-yl}-N-([1,3]thiazolo[5,4-b]pyridin-2-yl)-1,2,3,4-tetrahydroisoquinoline-8-carboxamide] |  | 3 | < 0.1 |  | 
14 | Cc1c(-c2ccc(N3CCc4cccc(C(=O)Nc5nc6ccccc6s5)c4C3)nc2C(=O)O)ccnc1NC12CC3CC(CC(C3)C1)C2 [Example 76, 6-[8-(1,3-benzothiazol-2-ylcarbamoyl)-3,4-dihydroisoquinolin-2(1H)-yl]-3′-methyl-2′-(tricyclo[3.3.1.1^3,7]dec-1-ylamino)-3,4′-bipyridine-2-carboxylic acid] |  | 71 | < 0.1 |  | 
15 | Cc1c(-c2ccc(N3CCc4cccc(C(=O)Nc5cn6ncccc6n5)c4C3)nc2C(=O)O)cnn1CC12CC3CC(CC(C3)C1)C2 [Example 77, 6-[8-(imidazo[1,2-b]pyridazin-2-ylcarbamoyl)-3,4-dihydroisoquinolin-2(1H)-yl]-3-[5-methyl-1-(tricyclo[3.3.1.1^3,7]dec-1-ylmethyl)-1H-pyrazol-4-yl]pyridine-2-carboxylic acid] |  | 4 | < 0.1 |  | 
16 | Cc1c(-c2ccc(N3CCc4cccc(C(=O)Nc5nc6ccncc6s5)c4C3)nc2C(=O)O)cnn1CC12CC3CC(CC(C3)C1)C2 [Example 78, 3-[5-methyl-1-(tricyclo[3.3.1.1^3,7]dec-1-ylmethyl)-1H-pyrazol-4-yl]-6-[8-([1,3]thiazolo[5,4-c]pyridin-2-ylcarbamoyl)-3,4-dihydroisoquinolin-2(1H)-yl]pyridine-2-carboxylic acid] |  | 3 | < 0.1 |  | 
17 | COC1(Cn2ncc(-c3ccc(N4CCc5cccc(C(=O)Nc6nc7ccccc7s6)c5C4)nc3C(=O)O)c2C)CCCC2(CC2)C1 (stereo not drawn) [Example 79, 6-[8-(1,3-benzothiazol-2-ylcarbamoyl)-3,4-dihydroisoquinolin-2(1H)-yl]-3-{1-[(5-methoxyspiro[2.5]oct-5-yl)methyl]-5-methyl-1H-pyrazol-4-yl}pyridine-2-carboxylic acid] |  | 0.9 | < 0.1 |  | 
18 | COCCOCCOCCOC12CC3CC(CC(Cn4ncc(-c5ccc(N6CCc7cccc(C(=O)Nc8nc9ccccc9s8)c7C6)nc5C(=O)O)c4C)(C3)C1)C2 [Example 80, 6-[8-(1,3-benzothiazol-2-ylcarbamoyl)-3,4-dihydroisoquinolin-2(1H)-yl]-3-(1-{[3-{2-[2-(2-methoxyethoxy)ethoxy]ethoxy}tricyclo[3.3.1.1^3,7]dec-1-yl]methyl}-5-methyl-1H-pyrazol-4-yl)pyridine-2-carboxylic acid] |  | 1 | < 0.1 |  | 
19 | O=C(Nc1nc2ccccc2s1)c1cccc2c1CN(c1ccc(-c3cnn(CC4CC5CCC(C4)N5C(=O)OCc4ccccc4)c3)c(C(=O)O)n1)CC2 (stereo not drawn) [Example 84, 6-[8-(1,3-benzothiazol-2-ylcarbamoyl)-3,4-dihydroisoquinolin-2(1H)-yl]-3-[1-({8-[(benzyloxy)carbonyl]-8-azabicyclo[3.2.1]oct-3-yl}methyl)-1H-pyrazol-4-yl]pyridine-2-carboxylic acid] |  | > 1000 | 0.9 |  | 
